In ChEMBL document CHEMBL1134142, “Prodrugs of 3-amido bearing pseudomycin analogues: novel antifungal agents” (Bioorg Med Chem Lett, 2001):
Converted amounts (≈) assume the structure as drawn. Bridge positions count the residues as written; N and C are the ends. Square brackets hold non-standard residues; d marks the D form. Side chains are listed from the residue outwards. Peptide text beside a SMILES is read from it. * marks the point of attachment. Tetradecanoyl(3R-OH) = CCCCCCCCCCC[C@@H](O)CC(=O)*; Asp(3S-OH) = N[C@H](C(=O)O)[C@H](O)C(=O)O; Thr(4-Cl) = N[C@H](C(=O)O)[C@H](O)CCl; aThr = C[C@H](O)[C@H](N)C(=O)O; dDab = NCC[C@@H](N)C(=O)O; NHCH2CH2NMe2 = CN(C)CCN*; Dab = NCC[C@H](N)C(=O)O; Dhb = C/C=C(\N)C(=O)O; X1 = CCN(CC)CCN*; NHcPr = C1CC1N*

Legend:
Mus musculus [1] = experiment: (§1) Compound was evaluated in vivo for its effective dose against cryptococosis; assay type: functional
[2] = The compound was tested for toxicity in tail vein irritation model; No; conditions: mouse
Mus musculus [3] = experiment: Compound was evaluated in vivo for its effective dose against Murine candidiasis; assay type: functional
Mus musculus [4] = organism: Mus musculus; experiment: Maximum tolerated dose against tail vein irritation determined by dose elevation study; assay type: functional
Cryptococcus neoformans [5] = experiment: as §1; assay type: functional
Aspergillus fumigatus = experiment: Minimum inhibitory concentration against Aspergillus fumigatus; assay type: functional
Candida albicans = experiment: Minimum inhibitory concentration against Candida albicans.; assay type: functional
[6] = The compound was tested for toxicity in tail vein irritation model; Yes; conditions: mouse
Cryptococcus neoformans [7] = experiment: Minimum inhibitory concentration against Cryptococcus neoformans.

MIC (Aspergillus fumigatus) | MIC (Candida albicans) | MIC (Cryptococcus neoformans [7]) | Structure (SMILES) | ED50 (Mus musculus [1]) | Toxicity [2] | ED50 (Mus musculus [3]) | Dose elevation (Mus musculus [4]) | ED50 (Cryptococcus neoformans [5]) | Toxicity [6]
 |  |  | C/C=C1\NC(=O)[C@H]([C@H](C)O)NC(=O)[C@H](CCN)NC(=O)[C@H](CCCCN)NC(=O)[C@H](CC(=O)NCC(=O)OC)NC(=O)[C@@H](CCN)NC(=O)[C@@H](NC(=O)C[C@H](O)CCCCCCCCCCC)COC(=O)[C@H]([C@H](O)CCl)NC(=O)[C@H]([C@H](O)C(=O)O)NC1=O ({Tetradecanoyl(3R-OH)}-S[dDab]D([Gly-OMe])K[Dab][aThr][Dhb][Asp(3S-OH)][Thr(4-Cl)]; ester 1-C) | 2.9 mg/kg | Not toxic | < 5 mg/kg | <50 mg/kg |  | 
 |  |  | C/C=C1\NC(=O)[C@H]([C@H](C)O)NC(=O)[C@H](CCN)NC(=O)[C@H](CCCCN)NC(=O)[C@H](CC(=O)NC2CC2)NC(=O)[C@@H](CCN)NC(=O)[C@@H](NC(=O)C[C@H](O)CCCCCCCCCCC)COC(=O)[C@H]([C@H](O)CCl)NC(=O)[C@H]([C@H](O)C(=O)O)NC1=O ({Tetradecanoyl(3R-OH)}-S[dDab]D(NHcPr)K[Dab][aThr][Dhb][Asp(3S-OH)][Thr(4-Cl)]; ester 1-C) | 2.9 mg/kg | Not toxic | < 5 mg/kg | 50 mg/kg |  | 
 |  |  | C/C=C1\NC(=O)[C@H]([C@H](C)O)NC(=O)[C@H](CCNC(=O)OCOC(=O)C(C)C)NC(=O)[C@H](CCCCNC(=O)OCOC(=O)C(C)C)NC(=O)[C@H](CC(=O)NCCN(C)C)NC(=O)[C@@H](CCNC(=O)OCOC(=O)C(C)C)NC(=O)[C@@H](NC(=O)C[C@H](O)CCCCCCCCCCC)COC(=O)[C@H]([C@H](O)CCl)NC(=O)[C@H]([C@H](O)C(=O)O)NC1=O |  | Not toxic | 6.6 mg/kg | 125 mg/kg |  | 
 |  |  | C/C=C1\NC(=O)[C@H]([C@H](C)O)NC(=O)[C@H](CCN)NC(=O)[C@H](CCCCN)NC(=O)[C@H](CC(=O)NCCN(C)C)NC(=O)[C@@H](CCN)NC(=O)[C@@H](NC(=O)C[C@H](O)CCCCCCCCCCC)COC(=O)[C@H]([C@H](O)CCl)NC(=O)[C@H]([C@H](O)C(=O)O)NC1=O ({Tetradecanoyl(3R-OH)}-S[dDab]D(NHCH2CH2NMe2)K[Dab][aThr][Dhb][Asp(3S-OH)][Thr(4-Cl)]; ester 1-C) | 2.5 mg/kg | Not toxic | < 5 mg/kg | 50 mg/kg |  | 
10 µg/mL (≈ 8.29 µM) | 2.5 µg/mL (≈ 2.07 µM) | < 0.01 µg/mL | C/C=C1\NC(=O)[C@H]([C@H](C)O)NC(=O)[C@H](CCN)NC(=O)[C@H](CCCCN)NC(=O)[C@H](CC(N)=O)NC(=O)[C@@H](CCN)NC(=O)[C@@H](NC(=O)C[C@H](O)CCCCCCCCCCC)COC(=O)[C@H]([C@H](O)CCl)NC(=O)[C@H]([C@H](O)C(=O)O)NC1=O ({Tetradecanoyl(3R-OH)}-S[dDab]NK[Dab][aThr][Dhb][Asp(3S-OH)][Thr(4-Cl)]; ester 1-C) |  |  |  |  |  | Active
 |  |  | C/C=C1\NC(=O)[C@H]([C@H](C)O)NC(=O)[C@H](CCNC(=O)OCOC(=O)C(C)(C)C)NC(=O)[C@H](CCCCNC(=O)OCOC(=O)C(C)(C)C)NC(=O)[C@H](CC(=O)NCC(=O)OC)NC(=O)[C@@H](CCNC(=O)OCOC(=O)C(C)(C)C)NC(=O)[C@@H](NC(=O)C[C@H](O)CCCCCCCCCCC)COC(=O)[C@H]([C@H](O)CCl)NC(=O)[C@H]([C@H](O)C(=O)O)NC1=O | > 5 mg/kg | Not toxic | < 5 mg/kg | 125 mg/kg |  | 
20 µg/mL (≈ 12.2 µM) | 20 µg/mL (≈ 12.2 µM) | 20 µg/mL (≈ 12.2 µM) | C/C=C1\NC(=O)[C@H]([C@H](C)O)NC(=O)[C@H](CCNC(=O)OCOC(=O)C(C)C)NC(=O)[C@H](CCCCNC(=O)OCOC(=O)C(C)C)NC(=O)[C@H](CC(N)=O)NC(=O)[C@@H](CCNC(=O)OCOC(=O)C(C)C)NC(=O)[C@@H](NC(=O)C[C@H](O)CCCCCCCCCCC)COC(=O)[C@H]([C@H](O)CCl)NC(=O)[C@H]([C@H](O)C(=O)O)NC1=O |  | Not toxic |  |  |  | 
 |  |  | C/C=C1\NC(=O)[C@H]([C@H](C)O)NC(=O)[C@H](CCNC(=O)OCOC(=O)C(C)C)NC(=O)[C@H](CCCCNC(=O)OCOC(=O)C(C)C)NC(=O)[C@H](CC(=O)NCC(=O)OC)NC(=O)[C@@H](CCNC(=O)OCOC(=O)C(C)C)NC(=O)[C@@H](NC(=O)C[C@H](O)CCCCCCCCCCC)COC(=O)[C@H]([C@H](O)CCl)NC(=O)[C@H]([C@H](O)C(=O)O)NC1=O |  | Not toxic | < 5 mg/kg | 125 mg/kg |  | 
 |  |  | C/C=C1\NC(=O)[C@H]([C@H](C)O)NC(=O)[C@H](CCNC(=O)OCOC(=O)C(C)(C)C)NC(=O)[C@H](CCCCNC(=O)OCOC(=O)C(C)(C)C)NC(=O)[C@H](CC(=O)NCCN(C)C)NC(=O)[C@@H](CCNC(=O)OCOC(=O)C(C)(C)C)NC(=O)[C@@H](NC(=O)C[C@H](O)CCCCCCCCCCC)COC(=O)[C@H]([C@H](O)CCl)NC(=O)[C@H]([C@H](O)C(=O)O)NC1=O | 0.44 mg/kg | Not toxic | < 5 mg/kg |  |  | 
10 µg/mL (≈ 7.66 µM) | 10 µg/mL (≈ 7.66 µM) | < 0.01 µg/mL | C/C=C1\NC(=O)[C@H]([C@H](C)O)NC(=O)[C@H](CCN)NC(=O)[C@H](CCCCN)NC(=O)[C@H](CC(=O)NCCN(CC)CC)NC(=O)[C@@H](CCN)NC(=O)[C@@H](NC(=O)C[C@H](O)CCCCCCCCCCC)COC(=O)[C@H]([C@H](O)CCl)NC(=O)[C@H]([C@H](O)C(=O)O)NC1=O ({Tetradecanoyl(3R-OH)}-S[dDab]D(X1)K[Dab][aThr][Dhb][Asp(3S-OH)][Thr(4-Cl)]; ester 1-C) |  |  |  |  |  | Active
20 µg/mL (≈ 11.7 µM) | 20 µg/mL (≈ 11.7 µM) | 20 µg/mL (≈ 11.7 µM) | C/C=C1\NC(=O)[C@H]([C@H](C)O)NC(=O)[C@H](CCNC(=O)OCOC(=O)C(C)C)NC(=O)[C@H](CCCCNC(=O)OCOC(=O)C(C)C)NC(=O)[C@H](CC(=O)NC(C)(C)CC)NC(=O)[C@@H](CCNC(=O)OCOC(=O)C(C)C)NC(=O)[C@@H](NC(=O)C[C@H](O)CCCCCCCCCCC)COC(=O)[C@H]([C@H](O)CCl)NC(=O)[C@H]([C@H](O)C(=O)O)NC1=O |  | Not toxic |  |  |  | 
 |  |  | C/C=C1\NC(=O)[C@H]([C@H](C)O)NC(=O)[C@H](CCNC(=O)OCOC(=O)C(C)C)NC(=O)[C@H](CCCCNC(=O)OCOC(=O)C(C)C)NC(=O)[C@H](CC(=O)NC2CC2)NC(=O)[C@@H](CCNC(=O)OCOC(=O)C(C)C)NC(=O)[C@@H](NC(=O)C[C@H](O)CCCCCCCCCCC)COC(=O)[C@H]([C@H](O)CCl)NC(=O)[C@H]([C@H](O)C(=O)O)NC1=O | 0.56 mg/kg | Not toxic | < 5 mg/kg | 125 mg/kg |  | 
 |  |  | C/C=C1\NC(=O)[C@H]([C@H](C)O)NC(=O)[C@H](CCNC(=O)OCOC(=O)C(C)(C)C)NC(=O)[C@H](CCCCNC(=O)OCOC(=O)C(C)(C)C)NC(=O)[C@H](CC(=O)NC2CC2)NC(=O)[C@@H](CCNC(=O)OCOC(=O)C(C)(C)C)NC(=O)[C@@H](NC(=O)C[C@H](O)CCCCCCCCCCC)COC(=O)[C@H]([C@H](O)CCl)NC(=O)[C@H]([C@H](O)C(=O)O)NC1=O |  | Not toxic | < 5 mg/kg |  |  | 
20 µg/mL (≈ 11.5 µM) | 20 µg/mL (≈ 11.5 µM) | 20 µg/mL (≈ 11.5 µM) | C/C=C1\NC(=O)[C@H]([C@H](C)O)NC(=O)[C@H](CCNC(=O)OCOC(=O)C(C)C)NC(=O)[C@H](CCCCNC(=O)OCOC(=O)C(C)C)NC(=O)[C@H](CC(=O)NCCN(CC)CC)NC(=O)[C@@H](CCNC(=O)OCOC(=O)C(C)C)NC(=O)[C@@H](NC(=O)C[C@H](O)CCCCCCCCCCC)COC(=O)[C@H]([C@H](O)CCl)NC(=O)[C@H]([C@H](O)C(=O)O)NC1=O |  | Not toxic |  |  |  | 
> 20 µg/mL | 0.312 µg/mL (≈ 0.244 µM) | < 0.01 µg/mL | C/C=C1\NC(=O)[C@H]([C@H](C)O)NC(=O)[C@H](CCN)NC(=O)[C@H](CCCCN)NC(=O)[C@H](CC(=O)NC(C)(C)CC)NC(=O)[C@@H](CCN)NC(=O)[C@@H](NC(=O)C[C@H](O)CCCCCCCCCCC)COC(=O)[C@H]([C@H](O)CCl)NC(=O)[C@H]([C@H](O)C(=O)O)NC1=O |  |  |  |  |  | Active

Structure (SMILES) | MIC (Aspergillus fumigatus) | MIC (Candida albicans) | MIC (Cryptococcus neoformans [7]) | ED50 (Mus musculus [1]) | Toxicity [2] | ED50 (Mus musculus [3]) | Dose elevation (Mus musculus [4]) | ED50 (Cryptococcus neoformans [5]) | Toxicity [6]
C/C=C1\NC(=O)[C@H]([C@H](C)O)NC(=O)[C@H](CCN)NC(=O)[C@H](CCCCN)NC(=O)[C@H](CC(=O)O)NC(=O)[C@@H](CCN)NC(=O)[C@@H](NC(=O)C[C@H](O)CCCCCCCCCCC)COC(=O)[C@H]([C@H](O)CCl)NC(=O)[C@H]([C@H](O)C(=O)O)NC1=O [PSEUDOMYCIN B] ({Tetradecanoyl(3R-OH)}-S[dDab]DK[Dab][aThr][Dhb][Asp(3S-OH)][Thr(4-Cl)]; ester 1-C) | 20 µg/mL (≈ 16.6 µM) | 0.625 µg/mL (≈ 0.517 µM) | 0.01 µg/mL (≈ 0.00828 µM) |  |  |  | 20 mg/kg | 1.8 mg/kg | Active
